Reference: US6426202B1, “Nystatin-resistant Aspergillus terreus CLS 247-13, KCTC 0673BP for preparing triol heptanoic acid employing the same” (priority 1999, dated 2002)

Columns and labels:
[1] = tested on: mutant strain Aspergillus terreus CLS247-13; test: Minimal inhibitory concentration of nystatin, mutant strain; format: cell-based
Protocol: (§1) After incubating the culture in a liquid minimal medium containing nystatin for 1.5-3 hours, it was washed with saline solution, concentrated, diluted properly, and spreaded onto solid minimal medium containing 150 μg/ml of nystatin, and then the resultant was incubated at 28° C. for 8-15 days to isolate viable mutant strains. The isolated mutant strains resistant to nystatin, showing various morphological characteristics, were subcultured on solid minimal media containing increasing concentrations of nystatin (i.e., 150, 160, 170, 180, 190 and 200 […]) to select mutants showing increased resistance. The nystatin-resistant mutants thus obtained were incubated in an agar slant medium for 15-20 days. The spores formed were recovered in a 20% glycerin solution and subjected to liquid culture as disclosed in Example 2 below. As a result, the productivity of mevinolinic acid decreased and a variety of its analogues appeared. The mutant showing a high productivity of triol heptanoic acid of at least 11.5 g/L was selected and named ‘Aspergillus terreus CLS247-13’. Aspergillus terreus CLS247-13 maintained morphological characteristics, resistance to nystatin and high productivity of triol heptanoic acid constantly on a solid minimal medium containing 2 g/L of yeast extract for 10 generations. […]

[2] = tested on: parent strain Aspergillus terreus CLS216-7; test: Minimal inhibitory concentration of nystatin, parent strain; format: cell-based; conditions: parent strain CLS216-7
Protocol: as §1

C[C@@H]1[C@H](O)[C@@H](C)/C=C/C=C/CC/C=C/C=C/C=C/C=C/C(O[C@H]2O[C@H](C)[C@@H](O)[C@H](N)[C@@H]2O)CC2O[C@](O)(CC(O)C(O)CCC(O)CC(O)CC(O)CC(=O)O[C@H]1C)CC(O)C2C(=O)O (stereo partly drawn) [nystatin]
Minimal inhibitory conc. of nystatin ([1]; mutant strain CLS247-13): ≦200 μg/ml | increase of minimal inhibitory concentration of nystatin (resistance to nystatin) compared with parent strain ([1]; mutant strain CLS247-13 compared with parent strain CLS216-7): 8 fold | Minimal inhibitory conc. of nystatin [2]: ≦25 μg/ml
